Experiments:
[1] = parameters: method as in PMID 25075037; settings: commercial antitumor agents; cited from earlier work
[2] = MTT cell viability assay, FB789 reference cell line; type: cell-based; settings: FB789 cells (normal human fibroblast)
Source text: (§1) Preliminary sunscreen data of 4a-d have been reported focusing on SKH1-E cell line, human abdominal skin explants, and in vivo hairless mouse models. Data for photo-adducts 6a-d, 7a-d, and 8a-d are not available. Thymine photo-adducts are well recognized as responsible for the activation of different molecular pathways involved in the cellular response to UV damage, including DNA repair system, melanogenesis, and Nucleotide Excision Repair (NER) system. In addition, TOP1ccs trapped near photo-adducts activates BER and remove (6-4)PPs in NER-deficient cells. TOP1 is highly expressed in malignant tumors, including carcinomas of the colon, prostate, ovary, lung, and melanoma. […] For this reason, we decided to study the antimelanoma activity of 4a-d, 6a-d, and 8a-d against two melanoma cancer cell lines, namely SK-MEL28 and RPMI7951 bearing a different genetic background. The antimelanoma activity was determined using the MTT cell viability assay, following the absorbance change (λmax 570 nm and 630 nm). The human FB789 cell line was used as reference. The CC50 (cytotoxic concentration that causes death of 50% of viable cells), IC50 (minimum concentration inhibiting 50% of the melanoma cells), and Selective Index (SI) (ratio between IC50 of reference cell line versus melanoma cell line) values are reported in Table 5. […] Compounds 4a-d were ineffective against melanoma cell lines. […] 234. Next, the antimelanoma activity of compounds 8a and 8b was evaluated after loading inside LNPs.
(§2) FB789 was grown in DMEM/F10, RPMI7951 melanoma cancer cells were grown in Minimal Essential Medium (MEM), while SK-Mel 28 melanoma cancer cells were grown in Dulbecco’s Modified Eagle Medium (DMEM). All culture media were supplemented with 10% Fetal Bovine Serum (FBS) plus 1.0 mM glutamine (40 µg/mL). The antimelanoma activity of 4a-d, 6a-d, and 8a-d was evaluated by MTT viability assay according to reference. Briefly, aliquots of the appropriate compound ([…]) were solubilized in dimethyl sulfoxide (one drops, DMSO) and administered to the selected cell line. After incubation for 3 h at 37 °C with MTT (0.5 mg/mL) the supernatant was removed, and […] of lysis solution (10% SDS and 0.6% acetic acid) was added to dissolve the formazan crystals. Optical density detection was performed by DTX880 Multimode Detector (Beckman Coulter) with 630 nm (background) and 570 nm filters. The percentage of cell viability was calculated as follows: % cell viability = 100–% cell cytotoxicity. The experiments for the evaluation of the antimelanoma activity of LNPs/8a and LNPs/8b were performed in a similar way using the appropriate amount of nanoparticles containing 1.0 mmol of the active compound and analyzing the antimelanoma activity at three different release times (2, 4, and 24 h).

SK-Mel28 = assay: MTT cell viability assay, SK-Mel28 melanoma cells; type: cell-based, human; settings: for SI (SKMel28): 24 h, ratio reference cell line FB789 versus melanoma cell line; for IC50: Homo sapiens, SK-MEL-28, 24 h
Source text: as §1, §2

[3] = Loading capacity and loading efficiency of lignin nanoparticles; type: physicochemical
Protocol: A further increase in the secondary solvent afforded low stable colloidal LNPs (18 mL; Table 3, entry 4) and aggregates (24 mL; Table 3, entry 5). Finally, LNPs were not formed after the addition of high volumes of deionized water (Table 3, entries 6–8). The optimal conditions affording stable colloidal LNPs (1:5 w/w and 1:10 w/w 4a/KL ratio, 3.0 mL of DMI/water 2:1 v/v, and 6.0 mL of secondary solvent) were successively applied for the encapsulation of 4b-d, and of the most abundant photo-adducts 6a-d and 8a-d. The loading capacity (LC) and loading efficiency (LE) Equations (1) and (2) were measured as a function of the concentration of the encapsulated compound [55, 56, 57, 58].
LNPs were separated by centrifugation, and the supernatant was analyzed by HPLC at λmax value of the encapsulated compound (271 nm for 4a-d, 191 nm for 6a-d, and 192 nm for 8a-d, respectively). Irrespective from the experimental conditions, the highest LE and LC were obtained in the presence of the highest value of the compound/KL ratio (compound/KL ratio of 1:5). […] (1) LC %:weight of starting drug−weight of unloaded drug/weight of lignin (2) LE %:weight of starting drug−weight of unloaded drug/weight of starting drug
LNPs were produced and loaded by the nanoprecipitation technique. The appropriate compound (3 mg) was dissolved in DMI/water (3.0 mL) at 50 °C under gentle stirring conditions followed by the addition of KL (15 mg). The fast addition of deionized water (6.0 mL) instantaneously produced LNPs. LNPs were then recovered by centrifugation (7500 rpm), washed with deionized water (10 mL) for 3 times, and lyophilized. The loading capacity (LC) and loading efficiency (LE) were evaluated by UHPLC analysis.

RPMI7951 = assay: MTT cell viability assay, RPMI7951 melanoma cells; type: cell-based, human; settings: for SI (RPMI7951): 24 h, ratio reference cell line FB789 versus melanoma cell line; for IC50: Homo sapiens, RPMI-7951, 24 h
Source text: as §1, §2

[4] = Cumulative (kinetic) release from lignin nanoparticles by dialysis; type: physicochemical; settings: pH 5.5, first 4 h, 37.5 °C
Protocol: The cumulative releasing capacity of LNPs was evaluated as previously reported in the literature and normalized with respect to the total amount of entrapped compound. In a typical procedure, the appropriate LNPs (7.5 mg) were suspended in water (3.0 mL) and dialyzed against deionized water (60.0 mL) at two selected pH values (pH 7.4 and 5.5, respectively) at 37.5 °C for 24 h. The amount of released compound was measured by UV–vis spectrophotometry at the optimal λmax value for each compound by sampling the dialysis solution at appropriate time intervals (Figure 4). The withdrawn volume was replaced by corresponding deionized water in order to maintain constant the volume of the solution (Section 3).
LNPs (7.5 mg, compound/KL 1:5 ratio) were suspended in water (3.0 mL), placed in a dialysis membrane, and immersed in PBS buffer (60 mL) at two selected pH values (7.4 and 5.5, respectively) at 37.5 °C for 24 h. A similar procedure was applied solubilizing LNPs/8b (7.5 mg) water (3.0 mL), followed by dialysis against the culture medium DMEM (60 mL). […] The quantification of released compound was conducted by UV–Vis spectrophotometry at the λmax characteristic for each type of compound (271 nm for 4a-d, and 191 and 192 nm for 6a-d and 8a-d, respectively) using semi-micro cuvettes. […]

[5] = UV shielding (photo-protective) capacity of loaded LNPs; type: physicochemical; settings: after 15 min of irradiation, loaded in LNPs versus free compound
Protocol: The UV shielding capacity of LNPs allows them to protect bioactive compounds from premature deactivation. To evaluate the photo-protective role of LNPs we studied the irradiation of LNPs/4a, LNPs/6a, LNPs/7a, and LNPs/8a as a selected representative example of thymine dimers. The samples were suspended in DMI/water mixture (2:1 v/v, 1.0 mL) and treated with UV under previously reported experimental conditions. At scheduled times (5, 10, and 15 min), aliquots (0.2 mL) of the suspension were withdrawn and analyzed. An excess of DMI (1.0 mL) was added to disaggregate LNPs, followed by filtration of residual lignin. The residual concentrations of 4a, 6a, 7a, and 8a (expressed as % with respect to the starting material) were evaluated at λmax 271 nm. Data were compared with 4a, 6a, 7a, and 8a after irradiation under similar experimental conditions (Figure 3).
LNPs/4a were prepared following the standard procedure previously described. Typically, LNPs/4a (1.0 mg) suspended in DMI/water mixture (2:1 ratio, 1.0 mL) were deposited on a glass lens and irradiated with Haerus source (250 Watt, the lamp was at 20.0 cm distance). […] The photo-protection capacity of LNPs was determined by measuring the decrease in absorbance (λmax 271 nm) of recovered 4a compared with free reference (Varian UVCary-50). […]

| Structure (SMILES) | SI [1] | CC50 at 24 h [2] | SI (SKMel28) (SK-Mel28) | IC50 (SK-Mel28) | LC% ([3]; Compd/KL ratio 1:5) | LE% ([3]; Compd/KL ratio 1:5) | LC% ([3]; Compd/KL ratio 1:10) | LE% ([3]; Compd/KL ratio 1:10) | SI (RPMI7951) (RPMI7951) | IC50 (RPMI7951) | cumulative release [4] | photo-protection capacity [5] |
| --- | --- | --- | --- | --- | --- | --- | --- | --- | --- | --- | --- | --- |
| COc1cccc2c1C(=O)c1c(O)c3c(c(O)c1C2=O)C[C@@](O)(C(=O)CO)C[C@@H]3O[C@H]1C[C@H](N)[C@H](O)[C@H](C)O1 [doxorubicin] | 26.0 | – | – | – | – | – | – | – | – | – | – | – |
| Cc1cn(CCCCCn2cc(C)c(=O)[nH]c2=O)c(=O)[nH]c1=O [Compound 4c, N1,N1′-(pentane-1,5-diyl)bis-thymine] | – | 1660 ± 36.3 µM | 5.7 | 292.9 ± 2.5 µM | 12.52% | 69.70% | 6.97% | 62.59% | 4.6 | 357 ± 5.1 µM | – | – |
| CC12C(=O)NC(=O)N3CCCN4C(=O)NC(=O)C1(C)C4C32 (centres unmarked) [Compound 6a, 6a,6b-dimethylhexahydro-1H-3a,5,8,9a-tetraazacyclohepta[def]biphenylene 4,6,7,9(5H,8H)-tetraone] | – | 375 ± 28.2 µM | 4.39 | 85.2 ± 0.9 µM | 6.93% | 37.40% | 6.81% | 41.12% | 2.7 | 138 ± 2.1 µM | – | – |
| Cc1cn(CCCCCCn2cc(C)c(=O)[nH]c2=O)c(=O)[nH]c1=O [Compound 4d, N1,N1′-(hexane-1,6-diyl)bis-thymine] | – | 392 ± 5.2 µM | 2.3 | 169 ± 4.6 µM | 14.37% | 71.85% | 7.14% | 71.41% | 1.14 | 343 ± 7.6 µM | 71% | – |
| CC12C(=O)NC(=O)N3CCCCN4C(=O)NC(=O)C1(C)C4C32 (centres unmarked) [Compound 6b, 7a,7b-dimethyloctahydro-4a,6,9,10a-tetraazacycloocta[def]biphenylene-5,7,8,10(6H,9H)-tetraone] | – | 109 ± 5.4 µM | 6.09 | 17.9 ± 1.9 µM | 9.59% | 50.94% | 9.33% | 50.74% | 1.4 | 77.8 ± 1.8 µM | – | – |
| CC12C(=O)NC(=O)N3CCCCCN4C(=O)NC(=O)C1(C)C4C32 (centres unmarked) [Compound 6c, 8a,8b-dimethyloctahydro-1H-5a,7,10,11a-tetraazacyclonona[def]biphenylene-6,8,9,11(7H,10H)-tetraone] | – | 234 ± 7.3 µM | 0.83 | 282 ± 4.4 µM | 11.46% | 51.12% | 10.48% | 47.86% | 1.2 | 195 ± 3.8 µM | – | – |
| CC[C@@]1(O)C(=O)OCc2c1cc1n(c2=O)Cc2cc3ccccc3nc2-1 [camptothecin] | 88.3 | – | – | – | – | – | – | – | – | – | – | – |
| O=c1[nH]cc(F)c(=O)[nH]1 [Compound 5-FU, 5-fluro uracil] | 55.6 | – | – | – | – | – | – | – | – | – | – | – |
| Cc1cn(CCCn2cc(C)c(=O)[nH]c2=O)c(=O)[nH]c1=O [Compound 4a, N1,N1′-(propane-1,3-diyl)bis-thymine] | – | 1450 ± 56.2 µM | 4.7 | 304.3 ± 2.4 µM | 5.59% | 49.94% | 4.93% | 49.26% | 2.7 | 543.1 ± 2.7 µM | – | – |
| Cc1cn(CCCCn2cc(C)c(=O)[nH]c2=O)c(=O)[nH]c1=O [Compound 4b, N1,N1′-(butane-1,4-diyl)bis-thymine] | – | 839 ± 10.9 µM | 4.9 | 169 ± 4.6 µM | 10.38% | 51.91% | 4.24% | 52.40% | 0.07 | 12400 µM | – | – |
| CC12C(=O)NC(=O)N3CCCCCCN4C(=O)NC(=O)C1(C)C4C32 (centres unmarked) [Compound 6d, 9a,9b-dimethyldecahydro-6a,8,11,12a-tetraazacyclodeca[def]biphenylene-7,9,10,12(8H,11H)-tetraone] | – | 377 ± 14.8 µM | 4.3 | 87.9 ± 1.9 µM | 13.22% | 72.61% | 11.54% | 71.98% | 1.6 | 234.9 ± 1.6 µM | – | – |
| Cc1cn2c(=O)nc1C1N(CCC2)C(=O)NC(=O)C1(C)O (centres unmarked) [Compound 7a, 4-hydroxy-4,6-dimethyl-4,4a,10,11-tetrahydro-1H,9H-5,8-(azenomethano)pyrimido[1,6-e][1,5]diazonine-1,3,13(2H)-trione] | – | – | – | – | – | – | – | – | – | – | – | ~40% |

Source: article PMC8777952, “Lignin Nanoparticles Deliver Novel Thymine Biomimetic Photo-Adducts with Antimelanoma Activity” (International Journal of Molecular Sciences, 2022)
